Laboratory results published in PMC3605045, “GH1-family 6-P-β-glucosidases from human microbiome lactic acid bacteria” (Acta Crystallographica Section D: Biological Crystallography, 2013).

What was measured:
LpPgb1 = biological target: T1, LpPgb1 (Lactiplantibacillus plantarum, UniProt F9UU25); assay: G6PDH-coupled NADPH absorbance assay ([…] nm); format: biochemical; details: 0.1 M HEPES-NaOH pH 8.0, 2 mM NADP+, 298 K; native enzyme 0.02 µM
T1 construct: gene pbg1; full length Met1-Glu478, 478 residues, ~55 kDa, homodimer; His6 cut by TEV, SNA- left at N-terminus; E. coli BL21 (DE3) Magic, pMCSG7

SmBgl = biological target: T2, SmBgl (Streptococcus mutans, UniProt Q8DT00); assay: X-ray crystal structure, […] Å; format: binding; details: crystallised with 5 mM 6'-P-gentiobiose; product in phosphate and -1 subsites
T2 construct: gene bgl; full length, 477 residues, ~55 kDa, homodimer; His6 cut by TEV, SNA- left at N-terminus; E. coli BL21 (DE3) Magic, pMCSG7; SeMet-labelled protein in kinetic assays

SMILES | G6PDH-coupled NADPH absorbance assay (340 nm) (LpPgb1) | X-ray crystal structure, 1.48 Å (SmBgl)
O=P(O)(O)OC[C@H]1O[C@@H](OC[C@H]2OC(O)[C@H](O)[C@@H](O)[C@@H]2O)[C@H](O)[C@@H](O)[C@@H]1O (stereo partly drawn) [6′-P-gentiobiose] | Both enzymes showed hydrolytic activity towards all of these substrates | 
O=P(O)(O)OC[C@H]1O[C@@H](O[C@H]2[C@H](O)[C@@H](O)C(O)O[C@@H]2CO)[C@H](O)[C@@H](O)[C@@H]1O (stereo partly drawn) [6′-P-cellobiose] | Both enzymes showed hydrolytic activity towards all of these substrates | 
O=P(O)(O)OC[C@H]1OC(O)[C@H](O)[C@@H](O)[C@@H]1O (stereo partly drawn) [BG6, 6-P-β-glucose] |  | two BG6 ligands
